# Experimental data as given in patent US4076814A, “Preventive and curative compositions against mycoplasmosis” (Sankyo Company Limited, priority 1975, dated 1978).
# What was measured:
# Assay type in all cases: cell-based
# Mycoplasma gallisepticum = assay: Antimicrobial test, conventional agar plate dilution method, Mycoplasma gallisepticum; details: for MIC: Mycoplasmoides gallisepticum, read-out: Minimum Inhibitory Concentration, Mycoplasma gallisepticum
# Source text: (§1) ANTIMICROBIAL TEST AGAINST THREE STRAINS OF MYCOPLASMA
# (§2) The test was effected by a conventional agar plate dilution method using the indicated strains of mycoplasma. The dithiocarbamic acid derivatives as shown below with Compound Nos. were employed in the test.
# Mycoplasma pulmonis = assay: Antimicrobial test, conventional agar plate dilution method, Mycoplasma pulmonis; details: for MIC: Mycoplasma, read-out: Minimum Inhibitory Concentration, Mycoplasma pulmonis
# Source text: as §1, §2
# Mycoplasma hyorhinis = assay: Antimicrobial test, conventional agar plate dilution method, Mycoplasma hyorhinis; details: for MIC: Mycoplasma, read-out: Minimum Inhibitory Concentration, Mycoplasma hyorhinis
# Source text: as §1, §2
MIC (Mycoplasma gallisepticum) [µg/mL],MIC (Mycoplasma pulmonis) [µg/mL],MIC (Mycoplasma hyorhinis) [µg/mL],SMILES,"Minimum Inhibitory Concentration, Mycoplasma gallisepticum (Mycoplasma gallisepticum) [µg/mL]","Minimum Inhibitory Concentration, Mycoplasma pulmonis (Mycoplasma pulmonis) [µg/mL]","Minimum Inhibitory Concentration, Mycoplasma hyorhinis (Mycoplasma hyorhinis) [µg/mL]"
0.2,0.2,0.2,"CCN(CC)C(=S)SCCC(=O)C=Cc1ccc(C)cc1 [compound 142, 2-(p-Methylcinnamoyl)ethyl diethyldithiocarbamate]",,,
0.39,0.39,0.39,"CC1=C(C=CC(=O)CCSC(=S)N(C)C)C(C)(C)CCC1 [compound 146, 2-[β-(2,6,6-Trimethylcyclohexene-1-yl)acryloyl]-ethyl dimethyldithiocarbamate]",,,
0.05,0.05,0.05,"CCN(CC)C(=S)SCC(C)C(C)=O (stereo not drawn) [compound 148, 2-Acetylpropyl diethyldithiocarbamate]",,,
0.2,0.2,0.05,"CC(=O)C(C)CSC(=S)N1CCCCC1 (stereo not drawn) [compound 149, 2-Acetylpropyl 1-piperidinecarbodithioate]",,,
0.1,0.1,0.39,"CCCCCCCCCCC(CSC(=S)N(C)C)C(C)=O (stereo not drawn) [compound 152, 2-Acetyldodecyl dimethyldithiocarbamate]",,,
0.2,0.2,0.2,"CC(=O)C(CSC(=S)N(C)C)Cc1ccccc1 (stereo not drawn) [compound 156, 2-Acetyl-2-benzylethyl dimethyldithiocarbamate]",,,
0.1,0.1,0.1,"CC(=O)C(CSC(=S)N(C)C)c1ccccc1 (stereo not drawn) [compound 164, 2-Acetyl-2-phenylethyl dimethyldithiocarbamate]",,,
0.2,0.2,0.2,"Cc1cc(CSC(=S)N(C)C)cc(C)c1O [compound 183, 4-Hydroxy-3,5-dimethylbenzyl dimethyldithiocarbamate]",,,
0.78,0.78,0.78,"Cc1cc(CSC(=S)N2CCCC2)cc(C)c1O [compound 187, 4-Hydroxy-3,5-dimethylbenzyl 1-pyrrolidinecarbodithioate]",,,
1.56,1.56,3.13,"Cc1cc(CSC(=S)N2CCCC2C(=O)OCc2ccccc2)cc(C)c1O (stereo not drawn) [compound 191, 4-Hydroxy-3,5-dimethylbenzyl 2-benzyloxycarbonyl-1-pyrrolidinecarbodithioate]",,,
0.39,0.39,0.1,"Cc1cc(CSC(=S)N2CCCCC2)cc(C)c1O [compound 192, 4-Hydroxy-3,5-dimethylbenzyl 1-piperidinecarbodithioate]",,,
1.56,1.56,0.78,"Cc1cc(CSC(=S)N2CCOCC2)cc(C)c1O [compound 194, 4-Hydroxy-3,5-dimethylbenzyl 4-morpholinecarbodithioate]",,,
1.56,1.56,0.39,"Cc1cc(CSC(=S)N2CCN(C)CC2)cc(C)c1O.Cl [compound 196, 4-Hydroxy-3,5-dimethylbenzyl 4-methyl-1-piperazinecarbodithioate hydrochloride]",,,
0.39,0.39,0.2,"Cc1cc(C)c(O)c(CSC(=S)N(C)C)c1 [compound 197, 2-Hydroxy-3,5-dimethylbenzyl dimethyldithiocarbamate]",,,
0.39,0.39,0.2,"CCN(CC)C(=S)SCc1cc(C)cc(C)c1O [compound 198, 2-Hydroxy-3,5-dimethylbenzyl diethyldithiocarbamate]",,,
,,,"CCN(CC)C(=S)SCc1cc(C)cc(C)c1O [compound 199, 2-Hydroxy-3,5-dimethylbenzyl diethyldithiocarbamate]",0.39,0.39,0.39
0.1,0.1,0.1,"Cc1cc(CSC(=S)N2CCCCC2)cc(C(C)(C)C)c1O [compound 207, 4-Hydroxy-3-t-butyl-5-methylbenzyl 1-piperidinecarbodithioate]",,,
0.39,0.39,0.39,"CC(C)c1cc(CSC(=S)N2CCOCC2)cc(C(C)C)c1O [compound 210, 4-Hydroxy-3,5-di-isopropylbenzyl 4-morpholinecarbodithioate]",,,
0.78,0.78,0.39,"CN(C)C(=S)SCc1cc(C(C)(C)C)c(O)c(C(C)(C)C)c1 [compound 211, 4-Hydroxy-3,5-di-t-butylbenzyl dimethyldithio carbamate]",,,
1.56,1.56,1.56,"CCN(CC)C(=S)SCc1cc(C(C)(C)C)c(O)c(C(C)(C)C)c1 [compound 212, 4-Hydroxy-3,5-di-t-butylbenzyl diethyldithiocarbamate]",,,

MIC (Mycoplasma gallisepticum) [µg/mL],MIC (Mycoplasma pulmonis) [µg/mL],MIC (Mycoplasma hyorhinis) [µg/mL],SMILES,"Minimum Inhibitory Concentration, Mycoplasma gallisepticum (Mycoplasma gallisepticum) [µg/mL]","Minimum Inhibitory Concentration, Mycoplasma pulmonis (Mycoplasma pulmonis) [µg/mL]","Minimum Inhibitory Concentration, Mycoplasma hyorhinis (Mycoplasma hyorhinis) [µg/mL]"
0.78,0.39,0.39,"CC(C)(C)c1cc(CSC(=S)N2CCCCC2)cc(C(C)(C)C)c1O [compound 218, 4-Hydroxy-3,5-di-t-butylbenzyl 1-piperidinecarbodithioate]",,,
0.2,0.2,0.1,"CC(C)(C)c1cc(CSC(=S)N2CCOCC2)cc(C(C)(C)C)c1O [compound 219, 4-Hydroxy-3,5-di-t-butylbenzyl 4-morpholinecarbodithioate]",,,
0.78,0.78,0.78,"CC(C)(C)c1cc(CSC(=S)N2CCCCCC2)cc(C(C)(C)C)c1O [compound 220, 4-Hydroxy-3,5-di-t-butylbenzyl 1-hexamethyleneiminecarbodithioate]",,,
0.39,0.2,0.39,"CC(C)(C)c1cc(C(SC(=S)N2CCCCC2)c2ccccc2)cc(C(C)(C)C)c1O (stereo not drawn) [compound 225, 4-Hydroxy-3,5-di-t-butyl-α-phenylbenzyl 1-piperidinecarbodithioate]",,,
0.39,0.39,0.39,"COc1cc(CSC(=S)N2CCCCC2)cc(OC)c1O [compound 229, 4-Hydroxy-3,5-dimethoxybenzyl 1-piperidinecarbodithioate]",,,
1.56,1.56,0.78,"COc1cc(CSC(=S)N2CCOCC2)cc(OC)c1O [compound 230, 4-Hydroxy-3,5-dimethoxybenzyl 4-morpholinecarbodithioate]",,,
0.39,0.39,0.2,"CN(C)C(=S)SCc1cc(Cl)c(O)c(Cl)c1 [compound 232, 4-Hydroxy-3,5-dichlorobenzyl dimethyldithiocarbamate]",,,
3.13,3.13,1.56,"Oc1c(Cl)cc(CSC(=S)N2CCCCC2)cc1Cl [compound 234, 4-Hydroxy-3,5-dichlorobenzyl 1-piperidinecarbodithioate]",,,
1.56,1.56,1.56,"Oc1c(Cl)cc(CSC(=S)N2CCOCC2)cc1Cl [compound 235, 4-Hydroxy-3,5-dichlorobenzyl 4-morpholinecarbodithioate]",,,
0.2,0.2,0.2,"Cc1cc(CSC(=S)N(C)C)cc(CN(C)C)c1O [compound 236, 4-Hydroxy-3-dimethylaminomethyl-5-methylbenzyl dimethyldithiocarbamate]",,,
0.2,0.2,0.2,"CCCc1cc(CSC(=S)N(C)C)cc(CN(C)C)c1O.Cl [compound 238, 4-Hydroxy-3-dimethylaminomethyl5-n-propylbenzyl dimethyldithiocarbamate hydrochloride]",,,
0.39,0.39,0.2,"CCC(C)c1cc(CSC(=S)N(C)C)cc(CN(C)C)c1O.Cl (stereo not drawn) [compound 240, 4-Hydroxy-3-dimethylaminomethyl-5-sec-butylbenzyl dimethyldithiocarbamate hydrochloride]",,,
0.78,0.39,0.39,"CCN(CC)C(=S)SCc1cc(CN(C)C)c(O)c(C(C)(C)C)c1 [compound 241, 4-Hydroxy-3-dimethylaminomethyl-5-t-butylbenzyl diethyldithiocarbamate]",,,
0.1,0.1,0.1,"CCN(CC)C(=S)SCc1cc(CO)cc(OC)c1O [compound 242, 2-Hydroxy-3-methoxy-5-hydroxymethylbenzyl diethyldithiocarbamate]",,,
0.39,0.2,0.39,"CC=Cc1cc(CSC(=S)N(CC)CC)c(O)c(OC)c1 [compound 246, 2-Hydroxy-3-methoxy-5-propenylbenzyl diethyldithiocarbamate]",,,
0.78,0.78,0.39,"Cc1cc(O)c(CSC(=S)N(C)C)cc1CSC(=S)N(C)C [compound 247, 4-Hydroxy-5-dimethylthiocarbamoylthiomethyl-2-methylbenzyl dimethyldithiocarbamate]",,,
0.1,0.1,0.2,"CCCc1cc(CSC(=S)N(C)C)cc(CSC(=S)N(C)C)c1O [compound 248, 4-Hydroxy-5-dimethylthiocarbamoylthiomethyl-3-n-propylbenzyl dimethyldithiocarbamate]",,,
0.2,0.2,0.2,"CCC(C)c1cc(CSC(=S)N(C)C)cc(CSC(=S)N(C)C)c1O (stereo not drawn) [compound 250, 4-Hydroxy-5-dimethylthiocarbamoylthiomethyl-3-sec-butylbenzyl dimethyldithiocarbamate]",,,
0.2,0.1,0.2,"CN(C)C(=S)SCc1cc(CSC(=S)N(C)C)c(O)c(C(C)(C)C)c1 [compound 251, 2-Hydroxy-5-dimethylthiocarbamoylthiomethyl-3-t-butylbenzyl dimethyldithiocarbamate]",,,
0.39,0.39,0.39,"CN(C)C(=S)SCc1oc(CO)cc(=O)c1O [compound 254, 5-Hydroxy-2-hydroxymethyl-4-oxo-4H-pyran-6-ylmethyl dimethyldithiocarbamate]",,,
